# Experimental data reported in patent US20260124192A1, “COMPOUNDS, COMPOSITIONS, AND METHODS OF TREATING RNA VIRAL INFECTIONS” (priority 2024, published 2026).
# Read-outs that look alike come from different tables or passages of the source.
# Key:
# [1] = XTT cell viability assay, Huh-luc/neo-ET; assay type: cell-based; details: human, Huh-luc/neo-ET cells, XTT, 72 hours, read-out: HCV 1b - TC50
# Protocol: (§1) Twenty-four hours after seeding the cells, the cell culture supernatant was removed from each well and replaced with 175 μL fresh complete medium minus G418. Test compounds were evaluated at a high-test concentration of 10 μM and five serial half-logarithmic dilutions in three biological replicates. In three biological replicates, Sofosbuvir was evaluated in parallel at a high-test concentration of 1 μM and five serial half-logarithmic dilutions. Compounds were first serially diluted in DMSO to 400× of each final in-well concentration. An intermediate 8× solution was prepared in a complete medium and then added to the cells in a volume of 25 μL per well. A complete medium containing an equal percentage of DMSO (v/v) was added to vehicle-treated control cells. The final DMSO concentration was 0.25% (v/v) for all samples. The cells were incubated for an additional 72 hours at 37° C./5% CO2, then HCV replication was measured by luciferase activity and cell viability was assessed in parallel using an XTT colorimetric assay.
# (§2) Huh-luc/neo-ET cell viability was measured at 72 hours after treatment using the tetrazolium dye XTT (2,3-bis(2-methoxy-4-nitro-5-sulfophenyI)-5[(phenylamino)carbonyl]-2H-tetrazolium hydroxide). Mitochondrial enzymes of metabolically active cells metabolize XTT-tetrazolium to a soluble formazan product. XTT solution was prepared fresh at 1 mg/mL in DMEM. Phenazine methosulfate (PMS) solution was prepared at 0.15 mg/mL in PBS and stored in the dark at −20° C. An XTT/PMS stock was prepared immediately before use by adding 40 μL of PMS per ml of XTT solution. Fifty microliters (50 μL) XTT/PMS were added per well, and the cells were incubated for 4 hours at 37° C. The cell culture plates were then sealed with adhesive plate sealers and shaken gently or inverted several times to mix the soluble formazan product. The formazan product was measured spectrophotometrically by absorbance at 450/650 nm on a Vmax plate reader (Molecular Devices). The raw data in Softmax Pro 5.4.2 software was imported into Microsoft Excel for further analysis. Data are presented as absorbance values (450/650 nm) or the percentage of viable cells relative to vehicle-treated control (mean+1—standard deviation, n=3 biological replicates from one independent experiment).
# HCV genotype 1b replicon = assay: microbe, parasite or virus in culture; assay type: cell-based, Hepatitis C Virus; details: for EC50: Hepatitis C virus; for HCV 1b - percent effect: @ 10 μM
# CoV229E = assay: Anti-Coronavirus 229E cytoprotection (CPE) assay, MRC-5 (Method 3); assay type: cell-based, human Coronavirus 229E
# Cytotoxicity, XTT, MRC-5 = details: human
# [2] = tested on: MCF7 wild-type cell lines; assay: MCF7 growth inhibition assay (Cell Titre Glo 2.0); assay type: cell-based; details: Homo sapiens
# Protocol: The growth inhibition properties of inhibitors on MCF7 wild-type cell lines were evaluated using the Cell Titre Glo 2.0 cell viability reagent. The assay utilized 384-well black clear bottom plates with 20 μl of MCF7 wild-type cell suspension mixed with reference/test compounds and 20 μl of Cell Titre Glo 2.0 reagent. Cells were seeded at a density of 1000 cells/well in DMEM High Glucose culture media+10% Fetal Bovine Serum (FBS). Staurosporine and Camptothecin served as positive controls for confirming cytotoxicity at a concentration of 30 μM, and vehicle control of 1% DMSO was used to standardize conditions across all test points. The assay and culture media both contained 1% DMSO. Assays were conducted in duplicate for each concentration of the test compounds. The incubation period for the assay was set at 120 hours, after which growth inhibition was assessed. Using a multi-mode reader, the assay readout was based on luminescence measured in Relative Light Units (RLUs). The viability luminescence signal was monitored continually from the same wells over an extended period, allowing for detailed analysis of cell viability. Measurements were taken using an integration time ranging from 0.25 to 1 second across plates designated for various time points.
# Cells were maintained and seeded in 384 […] plates, maintaining 1000 cells/well. Seeded plates were incubated at 37° C., 5% CO2 for 16-18 hours to ensure optimal cell adherence and growth. Post-incubation, reference, and test compounds were added carefully to the wells for further processing. Plates were incubated again at 37° C., 5% CO2 for 120 hours (5 days) to allow compound effects. This was followed by the addition of CTG reagent as per the kit's instruction protocol for 30 minutes and RLU data to be recorded. Post plate read data to be analyzed using GraphPad Prism for software IC50 value generation.
# Next, the NCEs were tested for selective estrogen regulation modulation activity by using a growth inhibition assay. The assay is performed on MCF7 cells, which are derived from a hormone-dependent breast cancer that stops growing upon estrogen receptor inhibition. […] Staurosporine and Camptothecin served as positive controls for cytotoxicity and 1% DMSO as the vehicle control.
# MRC-5 cells = assay: Cytotoxicity, XTT, MRC-5; details: read-out: CoV229E - TC50; MRC-5; XTT; six days
# Huh-luc/neo-ET cells = assay: XTT cell viability assay, Huh-luc/neo-ET; assay type: cell-based; details: XTT, 72 hours, read-out: HCV 1b - TC50
# Protocol: as §1, §2
# [3] = MCF7 growth inhibition, 120 hours, read-out: MCF-7 IC50
# [4] = Huh-luc/neo-ET replicon, 72 hours, luciferase, read-out: HCV 1b - EC50
# [5] = Human coronavirus 229E, MRC5, […], read-out: CoV229E - EC50 (μM), MRC-5, XTT cytoprotection, six days
SMILES,CC50 at 72 h [1] [µM],"CC50 at 6 days (Cytotoxicity, XTT, MRC-5) [µM]","IC50 [2, 3] [µM]",EC50 (HCV genotype 1b replicon; [4]) [µM],EC50 (CoV229E; [5]) [µM],other results
"CC(C)OC(=O)[C@H](C)N[P@](=O)(OC[C@H]1O[C@@H](n2ccc(=O)[nH]c2=O)[C@](C)(F)[C@@H]1O)Oc1ccccc1 [Sofosbuvir, reference compound]",> 1,,,,,"EC50 (HCV genotype 1b replicon; Huh-luc/neo-ET, 72 h, read-out: HCV 1b - EC50 (μM)): 0.06 µM"
Cc1c(-c2ccc(O)cc2)n(Cc2ccc(OCCC3CCCCC3)cc2)c2ccc(O)cc12 [MCAA-04],> 10,2.7,2.24,> 10,,"CoV229E - percent effect (CoV229E; @ 1.58 μM, MRC-5): 25% @"
O=[N+]([O-])c1cccc2c1nc(-c1ccc(F)cc1)n2Cc1ccc(OCCC2CCCCC2)cc1 [MCAA-15],> 10,> 5,0.57,,> 5,HCV 1b - percent effect (HCV genotype 1b replicon; Huh-luc/neo-ET replicon): 38% @
Nc1cccc2nc(-c3ccc(F)cc3)n(Cc3ccc(OCCC4CCCCC4)cc3)c12 [MCAA-09],> 10,> 5,1.21,> 10,,"CoV229E - percent effect (CoV229E; @ 5 μM, MRC-5): 13% @"
O=C(O)c1ccc(-c2c(CC3CCCC3)c3ccc(F)cc3n2Cc2ccc(OCCC3CCCCC3)cc2)cc1 [MCAA-03],> 10,2.47,> 10,8.43,,"CoV229E - percent effect (CoV229E; @ 5 μM, MRC-5): 24% @"
O=[N+]([O-])c1cccc2nc(-c3ccc(F)cc3)n(Cc3ccc(OCCC4CCCCC4)cc3)c12 [MCAA-14],> 10,> 5,4.38,,,"CoV229E - percent effect (CoV229E; @ 5 μM, MRC-5): 31% @; HCV 1b - percent effect (HCV genotype 1b replicon; Huh-luc/neo-ET replicon): 34% @"
"C[C@]12CC[C@@H]3c4ccc(O)cc4C[C@@H](CCCCCCCCC[S+]([O-])CCCC(F)(F)C(F)(F)F)[C@H]3[C@@H]1CC[C@@H]2O (stereo partly shown) [Fulvestrant, reference compound]",,,,,,"IC50 ([2]; MCF7, 120 h, read-out: MCF-7 IC50 (μM)): 0.00089 µM; IC50 ([2]; MCF7, read-out: IC50, MCF7 growth inhibition): 0.00089 µM"
Nc1cccc2nc(-c3ccc(F)cc3)n(Cc3ccc(OCCN4CCCCC4)cc3)c12 [MCAA-08],> 10,> 5,> 10,9.59,,"CoV229E - percent effect (CoV229E; @ 5 μM, MRC-5): 33% @"
Nc1cccc2c1nc(-c1ccc(F)cc1)n2Cc1ccc(OCCN2CCCCC2)cc1 [MCAA-10],> 10,> 5,0.53,7.2,2.85,
Fc1ccc(-c2cc3sccc3n2Cc2ccc(OCCC3CCCCC3)cc2)cc1 [MCAA-07],> 10,> 5,> 10,,,"CoV229E - percent effect (CoV229E; @ 5 μM, MRC-5): 11% @; HCV 1b - percent effect (HCV genotype 1b replicon; Huh-luc/neo-ET replicon): 30% @"
COc1ccc(-c2c(Cc3ccc(OCCC4CCCCC4)cc3)c3ccc(OC)cc3n2C)cc1 [MCAA-05],> 10,> 5,> 10,> 10,> 5,
"CCC(CC)COC(=O)[C@H](C)N[P@](=O)(OC[C@H]1O[C@@](C#N)(c2ccc3c(N)ncnn23)[C@H](O)[C@@H]1O)Oc1ccccc1 [Remdesivir, reference compound]",,> 1,,,,"EC50 (CoV229E; Human coronavirus 229E, MRC5, […], read-out: CoV229E - EC50 (μM)): 0.14 µM"
O=[N+]([O-])c1cccc2c1nc(-c1ccc(F)cc1)n2Cc1ccc(OCCN2CCCCC2)cc1 [MCAA-13],> 10,> 5,2.47,7.05,2.96,
Nc1cccc2c1nc(-c1ccc(F)cc1)n2Cc1ccc(OCCC2CCCCC2)cc1 [MCAA-11],5.82,> 5,1.66,4.19,2.74,
COc1ccc(-c2c(Cc3ccc(OCCN4CCCCC4)cc3)c3ccc(OC)cc3n2C)cc1 [MCAA-01],,,,,,"EC50 (CoV229E; MRC-5, XTT cytoprotection, six days, read-out: CoV229E - EC50): 1.88 µM; CC50 (MRC-5 cells): > 5 µM; CC50 (Huh-luc/neo-ET cells): > 10 µM"
Fc1ccc(-c2cc3sccc3n2Cc2ccc(OCCN3CCCCC3)cc2)cc1 [MCAA-06],> 10,1.53,3.77,> 10,0.29,
O=C(O)c1ccc(-c2c(CC3CCCC3)c3ccc(F)cc3n2Cc2ccc(OCCN3CCCCC3)cc2)cc1 [MCAA-02],> 10,> 5,> 10,> 10,2.78,
O=[N+]([O-])c1cccc2nc(-c3ccc(F)cc3)n(Cc3ccc(OCCN4CCCCC4)cc3)c12 [MCAA-12],> 10,> 5,1.15,2.78,2.94,
